Results published in ChEMBL document CHEMBL4507286 (2021).

Tests used:
[1] = biological target: Mitogen-activated protein kinase kinase kinase 6 (Homo sapiens) (UniProt O95382)
[2] = biological target: Tyrosine-protein kinase BTK (Homo sapiens) (UniProt Q06187)
[3] = biological target: Calcium/calmodulin-dependent protein kinase type II subunit gamma (Homo sapiens) (UniProt Q13555)
[4] = biological target: Cyclin-dependent kinase 3 (Homo sapiens) (UniProt Q00526)
[5] = biological target: Cyclin-dependent kinase 4 (Homo sapiens) (UniProt P11802)
[6] = biological target: Cyclin-dependent kinase 5 (Homo sapiens, UniProt Q00535)
[7] = biological target: Casein kinase I isoform alpha-like (Homo sapiens) (UniProt Q8N752)
[8] = biological target: Mitogen-activated protein kinase kinase kinase 12 (Homo sapiens) (UniProt Q12852)
Chain of Mitogen-activated protein kinase kinase kinase 12 (Homo sapiens) (Q12852 whole entry): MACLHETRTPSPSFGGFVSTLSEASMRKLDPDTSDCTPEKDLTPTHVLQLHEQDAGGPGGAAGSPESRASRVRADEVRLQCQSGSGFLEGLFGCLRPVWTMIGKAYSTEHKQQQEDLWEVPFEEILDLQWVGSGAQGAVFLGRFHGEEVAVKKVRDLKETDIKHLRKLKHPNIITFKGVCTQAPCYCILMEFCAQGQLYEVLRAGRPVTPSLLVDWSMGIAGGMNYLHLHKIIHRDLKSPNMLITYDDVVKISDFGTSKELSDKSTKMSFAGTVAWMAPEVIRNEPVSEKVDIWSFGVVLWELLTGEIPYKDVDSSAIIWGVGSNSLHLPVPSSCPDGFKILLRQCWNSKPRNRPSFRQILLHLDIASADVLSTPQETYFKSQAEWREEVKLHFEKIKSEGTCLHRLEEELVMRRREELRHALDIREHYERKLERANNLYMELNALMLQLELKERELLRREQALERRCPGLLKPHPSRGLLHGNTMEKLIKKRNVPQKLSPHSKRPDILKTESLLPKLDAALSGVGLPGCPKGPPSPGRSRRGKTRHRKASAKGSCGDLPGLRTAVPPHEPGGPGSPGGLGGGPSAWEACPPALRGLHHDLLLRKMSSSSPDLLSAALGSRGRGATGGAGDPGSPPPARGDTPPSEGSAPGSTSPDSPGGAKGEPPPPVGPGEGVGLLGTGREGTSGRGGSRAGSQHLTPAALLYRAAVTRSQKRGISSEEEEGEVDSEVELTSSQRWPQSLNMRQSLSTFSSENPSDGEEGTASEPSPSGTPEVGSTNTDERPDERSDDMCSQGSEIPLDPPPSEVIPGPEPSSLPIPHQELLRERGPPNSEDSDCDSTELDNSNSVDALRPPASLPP

[9] = biological target: Dual specificity tyrosine-phosphorylation-regulated kinase 1B (Homo sapiens) (UniProt Q9Y463)
[10] = test system: Epidermal growth factor receptor (Homo sapiens), P00533 [G719C]
[11] = test system: Epidermal growth factor receptor (Homo sapiens), P00533 [L861Q]
[12] = biological target: Ephrin type-B receptor 3 (Homo sapiens) (UniProt P54753)
[13] = biological target: Receptor tyrosine-protein kinase erbB-2 (Homo sapiens) (UniProt P04626)
[14] = biological target: Receptor tyrosine-protein kinase erbB-3 (Homo sapiens) (UniProt P21860)
[15] = test system: eIF-2-alpha kinase GCN2 (Homo sapiens), Q9P2K8 [S808G]
[16] = biological target: Homeodomain-interacting protein kinase 1 (Homo sapiens) (UniProt Q86Z02)
[17] = biological target: Homeodomain-interacting protein kinase 2 (Homo sapiens) (UniProt Q9H2X6)
[18] = biological target: Mitogen-activated protein kinase kinase kinase kinase 1 (Homo sapiens) (UniProt Q92918)
[19] = biological target: Serine/threonine-protein kinase LATS2 (Homo sapiens) (UniProt Q9NRM7)
[20] = biological target: LIM domain kinase 2 (Homo sapiens) (UniProt P53671)
[21] = biological target: Serine/threonine-protein kinase MAK (Homo sapiens) (UniProt P20794)
[22] = biological target: Mitogen-activated protein kinase kinase kinase 1 (Homo sapiens) (UniProt Q13233)
[23] = biological target: Mitogen-activated protein kinase kinase kinase 3 (Homo sapiens) (UniProt Q99759)
[24] = biological target: Dual specificity mitogen-activated protein kinase kinase 5 (Homo sapiens) (UniProt Q13163)
[25] = biological target: Hepatocyte growth factor receptor (Homo sapiens) (UniProt P08581)
[26] = biological target: Dual specificity mitogen-activated protein kinase kinase 7 (Homo sapiens) (UniProt O14733)
[27] = biological target: Mitogen-activated protein kinase kinase kinase 11 (Homo sapiens) (UniProt Q16584)
[28] = biological target: Serine/threonine-protein kinase Nek10 (Homo sapiens) (UniProt Q6ZWH5)
Chain of Serine/threonine-protein kinase Nek10 (Homo sapiens) (Q6ZWH5 whole entry): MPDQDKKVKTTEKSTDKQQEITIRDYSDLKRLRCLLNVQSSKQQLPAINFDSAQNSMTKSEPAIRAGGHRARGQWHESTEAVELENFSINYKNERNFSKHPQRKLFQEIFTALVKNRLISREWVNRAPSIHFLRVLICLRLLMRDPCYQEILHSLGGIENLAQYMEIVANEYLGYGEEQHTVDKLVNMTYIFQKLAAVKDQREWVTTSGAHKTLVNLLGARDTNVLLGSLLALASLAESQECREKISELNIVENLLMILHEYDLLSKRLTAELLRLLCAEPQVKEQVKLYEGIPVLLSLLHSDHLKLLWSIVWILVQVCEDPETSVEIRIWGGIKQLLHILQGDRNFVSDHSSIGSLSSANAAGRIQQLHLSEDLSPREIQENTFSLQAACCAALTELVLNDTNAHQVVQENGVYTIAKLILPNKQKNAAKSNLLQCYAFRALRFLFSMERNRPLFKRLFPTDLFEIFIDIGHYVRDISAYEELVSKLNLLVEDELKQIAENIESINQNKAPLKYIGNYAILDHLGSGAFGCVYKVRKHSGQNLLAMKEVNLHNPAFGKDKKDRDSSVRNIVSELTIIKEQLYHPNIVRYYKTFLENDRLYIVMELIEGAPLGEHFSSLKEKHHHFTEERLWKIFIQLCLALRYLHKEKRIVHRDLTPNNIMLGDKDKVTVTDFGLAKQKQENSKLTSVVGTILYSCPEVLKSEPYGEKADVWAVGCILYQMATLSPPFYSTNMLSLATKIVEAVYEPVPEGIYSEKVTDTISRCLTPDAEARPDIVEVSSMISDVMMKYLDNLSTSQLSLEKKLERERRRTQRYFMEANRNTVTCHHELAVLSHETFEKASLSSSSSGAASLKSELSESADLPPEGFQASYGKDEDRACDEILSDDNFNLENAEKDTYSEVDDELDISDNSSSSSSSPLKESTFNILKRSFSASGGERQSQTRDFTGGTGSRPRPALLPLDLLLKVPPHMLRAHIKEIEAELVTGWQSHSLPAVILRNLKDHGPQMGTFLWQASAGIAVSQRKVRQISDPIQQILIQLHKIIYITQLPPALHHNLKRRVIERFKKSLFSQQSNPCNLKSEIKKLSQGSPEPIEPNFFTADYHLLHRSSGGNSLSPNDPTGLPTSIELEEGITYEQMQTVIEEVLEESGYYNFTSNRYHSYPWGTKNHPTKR

[29] = biological target: Serine/threonine-protein kinase PAK 1 (Homo sapiens) (UniProt Q13153)
[30] = biological target: Serine/threonine-protein kinase PAK 6 (Homo sapiens) (UniProt Q9NQU5)
[31] = biological target: Cyclin-dependent kinase 16 (Homo sapiens) (UniProt Q00536)
Chain of Cyclin-dependent kinase 16 (Homo sapiens) (Q00536 whole entry): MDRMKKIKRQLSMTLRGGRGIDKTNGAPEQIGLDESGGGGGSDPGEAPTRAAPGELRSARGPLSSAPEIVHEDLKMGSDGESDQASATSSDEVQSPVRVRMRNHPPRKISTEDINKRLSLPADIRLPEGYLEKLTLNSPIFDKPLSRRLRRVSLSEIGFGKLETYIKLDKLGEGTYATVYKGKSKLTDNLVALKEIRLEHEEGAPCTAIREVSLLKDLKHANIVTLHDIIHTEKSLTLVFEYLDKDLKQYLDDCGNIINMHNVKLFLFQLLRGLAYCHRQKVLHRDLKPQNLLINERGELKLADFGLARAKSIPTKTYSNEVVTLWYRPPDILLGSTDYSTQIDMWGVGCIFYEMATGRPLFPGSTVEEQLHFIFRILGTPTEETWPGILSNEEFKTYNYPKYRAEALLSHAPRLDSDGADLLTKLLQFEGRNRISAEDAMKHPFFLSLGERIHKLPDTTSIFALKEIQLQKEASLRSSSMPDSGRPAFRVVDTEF

[32] = biological target: Calcium-dependent protein kinase 1 (Plasmodium falciparum) (UniProt P62344)
[33] = biological target: Cyclin-dependent kinase 2 homolog (Plasmodium falciparum (isolate 3D7)) (UniProt P61075)
[34] = test system: Phosphatidylinositol 4,5-bisphosphate 3-kinase catalytic subunit alpha isoform (Homo sapiens), P42336 [E542K]
[35] = test system: Phosphatidylinositol 4,5-bisphosphate 3-kinase catalytic subunit alpha isoform (Homo sapiens), P42336 [H1047Y]
[36] = biological target: Phosphatidylinositol 4-phosphate 5-kinase type-1 gamma (Homo sapiens) (UniProt O60331)
Chain of Phosphatidylinositol 4-phosphate 5-kinase type-1 gamma (Homo sapiens) (O60331 whole entry): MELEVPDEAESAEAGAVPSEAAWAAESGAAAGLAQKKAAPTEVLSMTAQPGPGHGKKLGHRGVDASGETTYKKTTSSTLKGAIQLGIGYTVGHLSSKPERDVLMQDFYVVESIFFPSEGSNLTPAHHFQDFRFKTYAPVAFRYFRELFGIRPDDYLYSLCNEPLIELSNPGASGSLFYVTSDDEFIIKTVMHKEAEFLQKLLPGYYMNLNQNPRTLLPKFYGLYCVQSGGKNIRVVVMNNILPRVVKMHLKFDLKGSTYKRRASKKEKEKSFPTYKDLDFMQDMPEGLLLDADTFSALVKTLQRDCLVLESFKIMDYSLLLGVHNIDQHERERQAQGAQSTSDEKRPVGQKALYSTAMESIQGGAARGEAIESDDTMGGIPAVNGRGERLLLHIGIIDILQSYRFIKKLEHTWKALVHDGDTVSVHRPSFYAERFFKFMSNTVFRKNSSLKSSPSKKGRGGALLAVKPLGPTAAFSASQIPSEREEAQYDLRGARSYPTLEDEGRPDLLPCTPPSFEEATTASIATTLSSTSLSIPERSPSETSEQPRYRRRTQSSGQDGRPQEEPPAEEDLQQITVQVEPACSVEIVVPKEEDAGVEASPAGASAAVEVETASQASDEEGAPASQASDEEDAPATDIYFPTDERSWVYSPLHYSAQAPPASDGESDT

[37] = biological target: cAMP-dependent protein kinase catalytic subunit beta (Homo sapiens) (UniProt P22694)
[38] = biological target: Serine/threonine-protein kinase D1 (Homo sapiens) (UniProt Q15139)
Chain of Serine/threonine-protein kinase D1 (Homo sapiens) (Q15139 whole entry): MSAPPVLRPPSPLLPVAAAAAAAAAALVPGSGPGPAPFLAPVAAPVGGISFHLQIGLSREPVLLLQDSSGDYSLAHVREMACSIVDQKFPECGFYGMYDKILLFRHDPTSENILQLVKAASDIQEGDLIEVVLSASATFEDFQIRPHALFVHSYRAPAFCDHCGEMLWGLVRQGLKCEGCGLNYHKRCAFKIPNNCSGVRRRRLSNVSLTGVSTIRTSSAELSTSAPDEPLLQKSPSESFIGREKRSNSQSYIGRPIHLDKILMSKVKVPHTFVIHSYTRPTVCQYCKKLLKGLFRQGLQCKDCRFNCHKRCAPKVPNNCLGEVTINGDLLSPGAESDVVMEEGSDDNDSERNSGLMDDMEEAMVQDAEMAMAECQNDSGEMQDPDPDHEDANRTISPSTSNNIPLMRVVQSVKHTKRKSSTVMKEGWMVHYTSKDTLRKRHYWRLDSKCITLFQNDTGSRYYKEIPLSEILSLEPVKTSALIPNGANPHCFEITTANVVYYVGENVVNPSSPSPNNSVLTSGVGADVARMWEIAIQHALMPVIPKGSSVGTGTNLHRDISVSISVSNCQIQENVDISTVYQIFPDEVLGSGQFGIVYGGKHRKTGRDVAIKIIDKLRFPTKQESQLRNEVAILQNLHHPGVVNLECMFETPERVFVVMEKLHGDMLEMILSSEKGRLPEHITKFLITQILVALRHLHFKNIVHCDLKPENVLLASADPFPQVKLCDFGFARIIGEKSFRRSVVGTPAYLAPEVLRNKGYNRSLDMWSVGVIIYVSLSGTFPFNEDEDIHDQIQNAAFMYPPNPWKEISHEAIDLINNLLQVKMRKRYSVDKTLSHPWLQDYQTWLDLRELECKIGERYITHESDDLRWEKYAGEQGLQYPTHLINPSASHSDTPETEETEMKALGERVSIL

[39] = biological target: STE20-like serine/threonine-protein kinase (Homo sapiens) (UniProt Q9H2G2)
[40] = biological target: Dual specificity testis-specific protein kinase 1 (Homo sapiens) (UniProt Q15569)
[41] = biological target: Serine/threonine-protein kinase tousled-like 1 (Homo sapiens) (UniProt Q9UKI8)
[42] = biological target: Tyrosine-protein kinase receptor TYRO3 (Homo sapiens) (UniProt Q06418)
[43] = biological target: Serine/threonine-protein kinase WNK1 (Homo sapiens) (UniProt Q9H4A3)
[44] = biological target: 5-hydroxytryptamine receptor 1A (Homo sapiens) (UniProt P08908); settings: Compound concentration 10.0 uM
[45] = biological target: Muscarinic acetylcholine receptor M5 (Homo sapiens) (UniProt P08912); settings: Compound concentration 10.0 uM
[46] = Compound concentration 1000.0 nM
[47] = Compound concentration 100.0 nM

Chain of Calcium/calmodulin-dependent protein kinase type II subunit gamma (Homo sapiens) (Q13555 whole entry): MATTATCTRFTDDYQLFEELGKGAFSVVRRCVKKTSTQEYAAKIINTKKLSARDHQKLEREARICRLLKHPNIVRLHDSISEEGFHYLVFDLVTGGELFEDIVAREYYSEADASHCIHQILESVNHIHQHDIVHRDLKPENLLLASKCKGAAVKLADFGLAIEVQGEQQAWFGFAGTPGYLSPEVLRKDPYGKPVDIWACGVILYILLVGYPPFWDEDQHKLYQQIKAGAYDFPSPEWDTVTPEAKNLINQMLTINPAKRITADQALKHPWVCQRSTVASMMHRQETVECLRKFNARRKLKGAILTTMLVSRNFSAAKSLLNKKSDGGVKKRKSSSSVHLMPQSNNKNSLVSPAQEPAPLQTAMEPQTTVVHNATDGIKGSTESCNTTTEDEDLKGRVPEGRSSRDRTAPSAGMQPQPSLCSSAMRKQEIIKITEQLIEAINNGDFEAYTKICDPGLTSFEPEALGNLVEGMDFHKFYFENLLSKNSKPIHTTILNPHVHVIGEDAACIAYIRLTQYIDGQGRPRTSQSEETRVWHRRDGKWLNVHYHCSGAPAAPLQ
Chain of Cyclin-dependent kinase 3 (Homo sapiens) (Q00526 whole entry, looked up): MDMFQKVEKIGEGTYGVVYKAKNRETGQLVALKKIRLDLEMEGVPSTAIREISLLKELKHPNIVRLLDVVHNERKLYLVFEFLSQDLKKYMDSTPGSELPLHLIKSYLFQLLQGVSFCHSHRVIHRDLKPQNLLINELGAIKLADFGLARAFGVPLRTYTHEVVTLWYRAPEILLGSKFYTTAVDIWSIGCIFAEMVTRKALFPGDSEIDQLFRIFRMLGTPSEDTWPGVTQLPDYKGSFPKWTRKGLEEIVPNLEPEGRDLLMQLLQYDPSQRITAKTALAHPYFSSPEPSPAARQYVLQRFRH

Compound `C[C@H](NC(=O)Nc1cc2[nH]ncc2c(CO)n1)c1ccccn1` [ERKi-NC] has a residual activity [1, 46] of 67.4%, a residual activity [2, 46] of 92% and a residual activity [3, 46] of 100%. For the same compound, the residual activity [4, 46] was 100%, the residual activity [5, 46] was 89.8% and the residual activity [6, 46] was 100%. The residual activity [7, 46] was 100%, the residual activity [8, 46] was 67.9% and the residual activity [9, 46] was 57.6%. For the same compound, the residual activity [10, 46] was 100%, the residual activity [11, 46] was 100% and the residual activity [12, 46] was 100%. The residual activity [13, 46] was 100%, the residual activity [14, 46] was 60.6% and the residual activity [15, 46] was 77.2%. The residual activity [16, 46] was 48.9%, the residual activity [17, 46] was 83.9% and the residual activity [18, 46] was 93.8%. For the same compound, the residual activity [19, 46] was 100%, the residual activity [20, 46] was 96% and the residual activity [21, 46] was 84.1%. It also gave a residual activity [22, 46] of 95.1%, a residual activity [23, 46] of 100% and a residual activity [24, 46] of 17.6%. For the same compound, the residual activity [25, 46] was 100%, the residual activity [26, 46] was 94.1% and the residual activity [27, 46] was 87.7%. The residual activity [28, 46] was 53.8%, the residual activity [29, 46] was 100% and the residual activity [30, 46] was 100%. For the same compound, the residual activity [31, 46] was 100%, the residual activity [32, 46] was 77.4% and the residual activity [33, 46] was 91.1%. It also gave a residual activity [34, 46] of 76.7%, a residual activity [35, 46] of 34.6% and a residual activity [36, 46] of 99.3%. It also gave a residual activity [37, 46] of 91.5%, a residual activity [38, 46] of 89.4% and a residual activity [39, 46] of 76%. The residual activity [40, 46] was 100%, the residual activity [41, 46] was 100% and the residual activity [42, 46] was 59.2%. For the same compound, the residual activity [43, 46] was 100%, the inhibition [44] was 20% and the inhibition [45] was 7.22%.

Work on `C[C@@H](NC(=O)Nc1cc2[nH]ncc2c(CO)n1)c1ccccc1` [ERKi] yielded a residual activity [1, 47] of 99.3%, a residual activity [2, 47] of 100% and a residual activity [3, 47] of 84.6%. The residual activity [4, 47] was 86.1%, the residual activity [5, 47] was 100% and the residual activity [6, 47] was 100%. The residual activity [7, 47] was 79.8%, the residual activity [8, 47] was 97.4% and the residual activity [9, 47] was 95.9%. The residual activity [10, 47] was 95.7%, the residual activity [11, 47] was 100% and the residual activity [12, 47] was 94.8%. The residual activity [13, 47] was 100%, the residual activity [14, 47] was 99% and the residual activity [15, 47] was 100%. The residual activity [16, 47] was 83.1%, the residual activity [17, 47] was 85.6% and the residual activity [18, 47] was 96.9%. It also gave a residual activity [19, 47] of 29%, a residual activity [20, 47] of 100% and a residual activity [21, 47] of 97.9%. The residual activity [22, 47] was 100%, the residual activity [23, 47] was 82.1% and the residual activity [24, 47] was 89.1%. It also gave a residual activity [25, 47] of 94.9%, a residual activity [26, 47] of 89.4% and a residual activity [27, 47] of 100%. It also gave a residual activity [28, 47] of 100%, a residual activity [29, 47] of 79.1% and a residual activity [30, 47] of 63.5%. For the same compound, the residual activity [31, 47] was 82.2%, the residual activity [32, 47] was 82.9% and the residual activity [33, 47] was 80.1%. The residual activity [34, 47] was 78.6%, the residual activity [35, 47] was 75.7% and the residual activity [36, 47] was 89.9%. It also gave a residual activity [37, 47] of 77%, a residual activity [38, 47] of 100% and a residual activity [39, 47] of 92.6%. For the same compound, the residual activity [40, 47] was 100%, the residual activity [41, 47] was 80.3% and the residual activity [42, 47] was 100%. It also gave a residual activity [43, 47] of 90.8%, an inhibition [44] of -1.87% and an inhibition [45] of 35.8%.
